From patent US12679801B2, “Amino lipid and preparation method and application thereof” (Shenzhen MagicRNA Biotechnology Co., Ltd., priority 2022, dated 2026)

What follows are compounds tested on BMDC primary cells (assay: Luc mRNA LNP transfection on BMDC primary cells (Embodiment 13, Table 3)). Conditions: 16 h, ONE-Glo Luciferase.
Format: cell-based, C57BL/6 mice
Description: Preparation method: the same as that described in Embodiment 7.
Animal preparation: 6-week-old female C57BL/6 mice with the body weight about 20 g were selected. The feeding environment was an SPF stage feeding room. Animal tests were strictly performed according to the guide of the national health institute and the animal ethics requirements.
(§1) Cell acquisition: C57BL/6 mice were killed through cervical dislocation, and were soaked for 5 min in 75% ethyl alcohol. Dissection was performed to obtain thigh and calf tibiae of the mice. Attached muscles were removed to expose sclerotin. Then, bone marrow in tibiae was blown out by using a 1 mL injector sucked with PBS. After the bone marrow was blown away, impurities were filtered away by a 50 μm filter screen. A red blood cell lysis buffer (3-4 mL) was added into an obtained filtrate. Then, after placement for 5 min, 800 g centrifugation was performed for 5 min to remove the supernatant. The obtained cells were placed into a 1640 culture medium (containing 10% fetal calf serum, 20 ng/mL GMCSF and 10 ng/ml IL4) to be resuspended, and were inoculated into a 6-well plate at an inoculation density of 100000 cells/ml culture medium. The materials were placed into a 37° C. cell incubator containing 5% CO2. Half liquid change was performed once every 2 days. Suspended cells and loose wall attached cells were collected on the seventh day, and were per well, and the volume of a culture medium was 100 μL.
(§2) Cell transfection: lipid nanoparticles coated with luciferase mRNA were added into a 96-well all-white ELISA plate laid with primary cells. The adding volume of the mRNA lipid nanoparticles in each well was controlled to be 10 μL. Then, the materials were put into a 37° C. incubator containing 5% CO2 for 16 h.
Transfection efficiency detection: 20 μL of a substrate ONE-Glo™ Luciferase was added into each well of a 96-well all-white ELISA plate. After 1 min, detection was performed by a multifunctional or multimode microplate reader.

In order of rising Luciferase luminescence intensity:
1. CCCCCCCCCCCCCC(=O)OC(CC(F)(F)C(F)(F)C(F)(F)C(F)(F)C(F)(F)C(F)(F)F)OC(=O)CCCN(C)C (centres unmarked) [E24C9A9, 1-((4-(Dimethylamino)Butyryl)Oxy)-3,3,4,4,5,5,6,6,7,7,8,8,8-Tridecafluorooctyl Tetradecanoate]  1.1E+ 04
2. CCCCCCCCCCCCCCC(=O)OCC(CCCCCC(CC)CC)OC(=O)C(C)CCN(C)C (centres unmarked) [E20C10A10]  1.2E+ 04
3. CCCCCCCCCCCCCCCC(=O)OCC(CCCCCC(CC)CC)OC(=O)C1CCN(C)CC1 (centres unmarked) [E20C11A23]  1.6E+ 04
4. CCCCCCCCCCCCCCCCC(=O)OCC(CCCCCC(CC)CC)OC(=O)C1CCN(C)CC1 (centres unmarked) [E20C12A23]  1.7E+ 04
5. CCCCCCCCCCCCCCCC(=O)OCC(OC(=O)C(C)CCN(C)C)C(CCCC)CCCCC (centres unmarked) [E21C11A10]  1.7E+ 04
6. CCCCCCCCCCCCCCC(=O)OCC(CCCCCC(CC)CC)OC(=O)CCCCN(C)C (centres unmarked) [E20C10A11]  1.9E+ 04
7. CCCCCCCCC(CCCCCC)C(=O)OCC(OC(=O)C1CCN(C)CC1)C(CCCC)CCCCC (centres unmarked) [E21C71A23]  1.9E+ 04
8. CCCCCCCCCCCCCC(=O)OCC(CCCCCC(CC)CC)OC(=O)C(C)CCN(C)C (centres unmarked) [E20C9A10]  2.7E+ 04
9. C=CCCCCC(COC(=O)C(CCCCCCC)CCCCCCCCC)OC(=O)CCCCN(C)C (centres unmarked) [E15C79A11]  3.0E+ 04
10. CCCCCCC(CCCCCC)C(=O)OCC(CCCCCC(CC)CC)OC(=O)CCCN(C)C (centres unmarked) [E20C64A9]  3.0E+ 04
11. CCCCCC(CCCC)C(COC(=O)CCCCCCCCCCCC(C)C)OC(=O)CCCN(C)C (centres unmarked) [E21C67A9]  3.2E+ 04
12. CCCCCCCCCCCCCCC(=O)OCC(CCCCCC(CC)CC)OC(=O)CCCCCN(C)C (centres unmarked) [E20C10A12]  3.6E+ 04
13. CCCCCCCCCCCCCC(=O)OCC(CCCCCC(CC)CC)OC(=O)CCCCN(C)C (centres unmarked) [E20C9A11]  4.0E+ 04
14. C=CCCCCC(COC(=O)C(CCCCCCC)CCCCCCCCC)OC(=O)CCCCCN(C)C (centres unmarked) [E15C79A12]  4.4E+ 04
15. CCCCCCCCCCCCCCCC(=O)OCC(CCCCCC(CC)CC)OC(=O)C(C)CCN(C)C (centres unmarked) [E20C11A10]  4.5E+ 04
16. CCCCCCCCCCCCCCCCCCC(=O)OCC(OC(=O)CCCN(C)C)C(CCCC)CCCCC (centres unmarked) [E21C14A9]  4.5E+ 04
17. CCCCCCCCCCCCCCCC(=O)OCC(OC(=O)CCCCN(C)C)C(CCCC)CCCCC (centres unmarked) [E21C11A11]  4.7E+ 04
18. CCCCCCCCCCCCCCC(=O)OCC(CCCCCC(CC)CC)OC(=O)CCCN(C)C (centres unmarked) [E20C10A9]  4.8E+ 04
19. CCCCCCCCCCCCCCCCC(=O)OCC(CCCCCC(CC)CC)OC(=O)CCCN(C)C (centres unmarked) [E20C12A9]  4.9E+ 04
20. CCCCCCCCCCCCCCCCC(=O)OCC(OC(=O)CCCN(C)C)C(CCCC)CCCCC (centres unmarked) [E21C12A9]  5.4E+ 04
21. CCCCCCCCCCC(C)(C)C(=O)OCC(CCCCCC(CC)CC)OC(=O)CCCN(C)C (centres unmarked) [E20C66A9]  5.9E+ 04
22. CCCCCCCCCCCCCCCCCC(=O)OCC(OC(=O)CCCCN(C)C)C(CCCC)CCCCC (centres unmarked) [E21C13A11]  6.4E+ 04
23. CCCCCCCCC(CCCCCC)C(=O)OCC(CCCCCC(CC)CC)OC(=O)CCCN(C)C (centres unmarked) [E20C71A9]  6.6E+ 04
24. CCCCCCCCCCCCCCCCCC(=O)OCC(OC(=O)CCCN(C)C)C(CCCC)CCCCC (centres unmarked) [E21C13A9]  6.7E+ 04
25. CCCCCCCCCCCCCCCCC(=O)OCC(OC(=O)C(C)CCN(C)C)C(CCCC)CCCCC (centres unmarked) [E21C12A10]  8.9E+ 04
26. CCCCCCCCCCCCCCCCC(=O)OCC(OC(=O)CCCCN(C)C)C(CCCC)CCCCC (centres unmarked) [E21C12A11]  9.5E+ 04
27. CCCCCCCCCCCCCCCCC(=O)OCC(CCCCCC(CC)CC)OC(=O)C(C)CCN(C)C (centres unmarked) [E20C12A10]  9.6E+ 04
28. CCCCCCCCCCCCCCCC(=O)OCC(CCCCCC(CC)CC)OC(=O)CCCN(C)C (centres unmarked) [E20C11A9, 2-((4-(Dimethylamino)Butyryl)Oxy)-8-Ethyldecyl Palmitate]  9.9E+ 04

In order of falling Luciferase luminescence intensity:
1. CCC(CC)CCCCCC(COC(=O)CCCCCCCCCCCC(C)C)OC(=O)CCCN(C)C (centres unmarked) [E20C67A9]  9.5E+ 03
2. CCCCCCCCCCCCCCCC(=O)OCC(OC(=O)CCCN(C)C)C(CCCC)CCCCC (centres unmarked) [E21C11A9]  8.7E+ 03
3. CCCCCCCCCCCCCC(C)C(=O)OCC(CCCCCC(CC)CC)OC(=O)CCCN(C)C (centres unmarked) [E20C72A9]  4.7E+ 03

Each compound was assayed on BMDC primary cells (assay: Luc mRNA LNP transfection on BMDC primary cells (Embodiment 21, Table 9)). Conditions: 16 h, ONE-Glo Luciferase.
Format: cell-based, C57BL/6 mice
Description: Preparation method: the same as that in Embodiment 17.
Animal preparation: 6-week-old female C57BL/6 mice with the body weight about 20 g were selected. A feeding environment was an SPF stage feeding room. Animal tests were strictly performed according to the guide of the national health institute and the animal ethics requirements.
as §1, with “to remove a supernatant. The” for “to remove the supernatant. The”, “and 10 ng/mL IL4) to” for “and 10 ng/ml IL4) to”, “and were inoculated to a 96-well all-white ELISA plate at the inoculation density of 20000 cells per well,” for “and were per well,”
as §2, with “white” for “all-white”
Transfection efficiency detection: 20 μL of a substrate ONE-Glo™ Luciferase was added into each well of a 96-well all-white ELISA plate, and after 1 min, detection was performed by a multifunctional or multimode microplate reader.

In order of falling Luciferase luminescence intensity:
1. CCCCCCCCC(COC(=O)C(CCCCCCCC)CCCCCCCC)OC(=O)CCCCN(C)C (centres unmarked) [E5C115A11]  1.1E+05
2. CCCCCCCCCCC(COC(=O)C(CCCCCCC)CCCCCCC)OC(=O)CCCCN(C)C (centres unmarked) [E7C114A11]  9.9E+04
3. CCCCCCCCCCC(COC(=O)C(CCCCCCCCC)CCCCCCCCC)OC(=O)CCCCN(C)C (centres unmarked) [E7C116A11]  9.2E+04
4. CCCCCCCCCCC(COC(=O)C(CCCCCCC)CCCCCCC)OC(=O)CCCN(C)C (centres unmarked) [E7C114A9, 2-((4-(Dimethylamino)Butanoyl)Oxy) Dodecyl 2-Heptylnonanoate]  6.6E+04
5. CCCCCCCCCC(CCCCCCCCC)C(=O)OCC(CCCCCCCC)OC(=O)CCCCN(C)C (centres unmarked) [E5C116A11]  6.2E+04
6. CCCCCCCCCCC(COC(=O)C(CCCCCCCC)CCCCCCCC)OC(=O)CCCN(C)C (centres unmarked) [E7C115A9]  5.6E+04
7. CCCCCCCCCCC(CCCC)C(=O)OCC(CCCCCCCC)OC(=O)CCCN(C)C (centres unmarked) [E5C104A9]  5.2E+04
8. CCCCCCCCC(COC(=O)C(CCCCCCC)CCCCCCC)OC(=O)CCCCN(C)C (centres unmarked) [E5C114A11]  4.6E+04
9. CCCCCCCCCC(CCCCCCCCC)C(=O)OCC(CCCCCC)OC(=O)CCCCN(C)C (centres unmarked) [E3C116A11]  4.4E+04
10. CCCCCCCCC(COC(=O)CC(CCCCCCC)CCCCCCC)OC(=O)CCCCN(C)C (centres unmarked) [E5C128A11]  4.3E+04
11. CCCCCCCCCCC(COC(=O)CC(CCCCC)CCCCCCCCC)OC(=O)CCCN(C)C (centres unmarked) [E7C123A9]  4.3E+04
12. CCCCCCCCCCC(CCCC)CC(=O)OCC(CCCCCCCC)OC(=O)CCCN(C)C (centres unmarked) [E5C119A9]  4.1E+04
13. CCCCCCCCCCC(CCCC)C(=O)OCC(CCCCCCCC)OC(=O)CCCCN(C)C (centres unmarked) [E5C104A11]  4.0E+04
14. CCCCCCCCC(COC(=O)CC(CCCCCCC)CCCCCCC)OC(=O)CCCN(C)C (centres unmarked) [E5C128A9]  3.9E+04
15. CCCCCCCCCCC(COC(=O)C(CCCC)CCCCCCCCCC)OC(=O)CCCN(C)C (centres unmarked) [E7C104A9]  3.9E+04
16. CCCCCCCCCCCCC(CCCC)C(=O)OCC(CCCCCCCCCC)OC(=O)CCCN(C)C (centres unmarked) [E7C106A9]  3.9E+04
17. CCCCCCCCCCC(COC(=O)CC(CCCCCC)CCCCCCCC)OC(=O)CCCCN(C)C (centres unmarked) [E7C126A11]  3.9E+04
18. CCCCCCCCCCC(COC(=O)CC(CCCCCCC)CCCCCCC)OC(=O)CCCCN(C)C (centres unmarked) [E7C128A11]  3.6E+04
19. CCCCCCCCCCC(COC(=O)CC(CCCCCCC)CCCCCCC)OC(=O)CCCN(C)C (centres unmarked) [E7C128A9]  3.5E+04
20. CCCCCCCCC(COC(=O)C(CCCCCCCC)CCCCCCCC)OC(=O)CCCN(C)C (centres unmarked) [E5C115A9]  2.7E+04
21. CCCCCCCCC(COC(=O)C(CCCCCCC)CCCCCCC)OC(=O)CCCN(C)C (centres unmarked) [E5C114A9]  8.6E+03
22. CCCCCCCCCC(CCCCC)C(=O)OCC(CCCCCCCC)OC(=O)CCCN(C)C (centres unmarked) [E5C109A9]  3.9E+03
